Data as given in ChEMBL document CHEMBL4004803, “Syntheses and antibacterial activity of soluble 9-bromo substituted indolizinoquinoline-5,12-dione derivatives” (Eur J Med Chem, 2017).
Values after ≈ are worked out from the molar mass of the structure shown.

Columns and labels:
Type in all cases: functional
Streptococcus pyogenes = experiment: Antibacterial activity against Streptococcus pyogenes ATCC 19615 after 20 to 24 hrs by two-fold microdilution method
[1] = test system: Staphylococcus epidermidis; experiment: Antibacterial activity against Staphylococcus epidermidis ATCC 12228 after 20 to 24 hrs by two-fold microdilution method
Staphylococcus aureus [2] = experiment: Antibacterial activity against […] Staphylococcus aureus ATCC 25923 after 20 to 24 hrs by two-fold microdilution method
Escherichia coli = experiment: Antibacterial activity against Escherichia coli ATCC 25922 after 20 to 24 hrs by two-fold microdilution method
[3] = test system: Staphylococcus haemolyticus; experiment: Antibacterial activity against Staphylococcus haemolyticus CICC 10373 after 20 to 24 hrs by two-fold microdilution method
Streptococcus pneumoniae = experiment: Antibacterial activity against Streptococcus pneumoniae ATCC 6305 after 20 to 24 hrs by two-fold microdilution method
Enterococcus faecalis = experiment: Antibacterial activity against Enterococcus faecalis ATCC 29212 after 20 to 24 hrs by two-fold microdilution method
Staphylococcus aureus [4] = experiment: Antibacterial activity against methicillin-resistant Staphylococcus aureus ATCC 43300 after 20 to 24 hrs by two-fold microdilution method

| Structure (SMILES) | MIC (Streptococcus pyogenes) [µg/mL] | MIC [1] [µg/mL] | MIC (Staphylococcus aureus [2]) [µg/mL] | MIC (Escherichia coli) [µg/mL] | MIC [3] [µg/mL] | MIC (Streptococcus pneumoniae) [µg/mL] | MIC (Enterococcus faecalis) [µg/mL] | MIC (Staphylococcus aureus [4]) [µg/mL] |
| --- | --- | --- | --- | --- | --- | --- | --- | --- |
| COP(=O)(CCOC(=O)c1c2c(n3cc(Br)ccc13)C(=O)c1ncccc1C2=O)OC | 16 (≈ 31.5 µM) | 0.5 (≈ 0.986 µM) | 1 (≈ 1.97 µM) | 16 (≈ 31.5 µM) | 1 (≈ 1.97 µM) | 16 (≈ 31.5 µM) | 0.5 (≈ 0.986 µM) | 1 (≈ 1.97 µM) |
| CCOC(=O)c1c2c(n3cccc(Br)c13)C(=O)c1nccnc1C2=O | – | – | 1 (≈ 2.5 µM) | > 16 | – | – | – | – |
| O=C1c2cccnc2C(=O)c2c1c(C(=O)OCCO)c1ccc(Br)cn21 | 8 (≈ 19.3 µM) | 0.125 (≈ 0.301 µM) | 0.125 (≈ 0.301 µM) | 4 (≈ 9.63 µM) | 0.5 (≈ 1.2 µM) | 8 (≈ 19.3 µM) | 0.25 (≈ 0.602 µM) | 0.125 (≈ 0.301 µM) |
| O=C1c2cccnc2C(=O)c2c1c(C(=O)OCCCCCN1CCCCC1)c1ccc(Br)cn21 | 8 (≈ 15.3 µM) | 0.125 (≈ 0.238 µM) | 1 (≈ 1.91 µM) | 4 (≈ 7.63 µM) | 1 (≈ 1.91 µM) | 4 (≈ 7.63 µM) | 0.5 (≈ 0.953 µM) | 2 (≈ 3.81 µM) |
| CN1CCN(CCCCCOC(=O)c2c3c(n4cc(Br)ccc24)C(=O)c2ncccc2C3=O)CC1 | 8 (≈ 14.8 µM) | ≤ 0.0078 | 0.25 (≈ 0.463 µM) | 2 (≈ 3.71 µM) | 0.25 (≈ 0.463 µM) | 2 (≈ 3.71 µM) | 0.25 (≈ 0.463 µM) | 0.25 (≈ 0.463 µM) |
| CCOC(=O)c1c2c(n3cc(Br)ccc13)C(=O)c1ncccc1C2=O | 4 (≈ 10 µM) | 0.063 (≈ 0.158 µM) | 0.063 (≈ 0.158 µM) | > 16 | 0.125 (≈ 0.313 µM) | 4 (≈ 10 µM) | 0.016 (≈ 0.0401 µM) | 0.063 (≈ 0.158 µM) |
| O=C1c2cccnc2C(=O)c2c1c(C(=O)OCCCCN1CCCC1)c1ccc(Br)cn21 | 8 (≈ 16.1 µM) | 0.125 (≈ 0.252 µM) | 2 (≈ 4.03 µM) | 1 (≈ 2.01 µM) | 4 (≈ 8.06 µM) | 4 (≈ 8.06 µM) | 1 (≈ 2.01 µM) | 1 (≈ 2.01 µM) |
| O=C1c2cccnc2C(=O)c2c1c(C(=O)OCCN1CCCC1)c1ccc(Br)cn21 | 8 (≈ 17.1 µM) | 0.031 (≈ 0.0662 µM) | 0.5 (≈ 1.07 µM) | 0.5 (≈ 1.07 µM) | 0.5 (≈ 1.07 µM) | 4 (≈ 8.54 µM) | 0.5 (≈ 1.07 µM) | 0.5 (≈ 1.07 µM) |
| O=C1c2cccnc2C(=O)c2c1c(C(=O)OCCCN1CCCCC1)c1ccc(Br)cn21 | 16 (≈ 32.2 µM) | 0.5 (≈ 1.01 µM) | 4 (≈ 8.06 µM) | 8 (≈ 16.1 µM) | 2 (≈ 4.03 µM) | 16 (≈ 32.2 µM) | 4 (≈ 8.06 µM) | 4 (≈ 8.06 µM) |
| CCOC(=O)c1c2c(n3cc(Br)ccc13)C(=O)c1nccnc1C2=O | – | – | 0.25 (≈ 0.625 µM) | 16 (≈ 40 µM) | – | – | – | – |
| O=C1c2cccnc2C(=O)c2c1c(C(=O)OCC(O)CO)c1ccc(Br)cn21 (stereo not given) | 16 (≈ 35.9 µM) | 1 (≈ 2.25 µM) | 2 (≈ 4.49 µM) | 4 (≈ 8.98 µM) | 4 (≈ 8.98 µM) | 16 (≈ 35.9 µM) | > 16 | 2 (≈ 4.49 µM) |
| CC1(C)S[C@@H]2[C@H](NC(=O)Cc3ccccc3)C(=O)N2[C@H]1C(=O)O [PENICILLIN G] | ≤ 0.0078 | 8 (≈ 23.9 µM) | 0.063 (≈ 0.188 µM) | > 16 | ≤ 0.0078 | ≤ 0.0078 | 1 (≈ 2.99 µM) | > 16 |
| CN(C)CCCCOC(=O)c1c2c(n3cc(Br)ccc13)C(=O)c1ncccc1C2=O | 16 (≈ 34 µM) | 0.25 (≈ 0.532 µM) | 4 (≈ 8.5 µM) | 1 (≈ 2.13 µM) | 4 (≈ 8.5 µM) | 8 (≈ 17 µM) | 2 (≈ 4.25 µM) | 2 (≈ 4.25 µM) |
| CN(C)CCCCCCOC(=O)c1c2c(n3cc(Br)ccc13)C(=O)c1ncccc1C2=O | 8 (≈ 16.1 µM) | ≤ 0.0078 | 0.25 (≈ 0.502 µM) | 2 (≈ 4.01 µM) | 0.5 (≈ 1 µM) | 2 (≈ 4.01 µM) | 0.5 (≈ 1 µM) | 0.25 (≈ 0.502 µM) |
| CN1CCN(CCCCOC(=O)c2c3c(n4cc(Br)ccc24)C(=O)c2ncccc2C3=O)CC1 | 8 (≈ 15.2 µM) | 0.031 (≈ 0.059 µM) | 0.25 (≈ 0.476 µM) | 8 (≈ 15.2 µM) | 1 (≈ 1.9 µM) | 2 (≈ 3.81 µM) | 0.5 (≈ 0.952 µM) | 0.5 (≈ 0.952 µM) |
| O=C1c2cccnc2C(=O)c2c1c(C(=O)OCCCN1CCCC1)c1ccc(Br)cn21 | 8 (≈ 16.6 µM) | 0.25 (≈ 0.518 µM) | 2 (≈ 4.15 µM) | 0.5 (≈ 1.04 µM) | 2 (≈ 4.15 µM) | 4 (≈ 8.29 µM) | 1 (≈ 2.07 µM) | 1 (≈ 2.07 µM) |
| CN1CCN(CCCOC(=O)c2c3c(n4cc(Br)ccc24)C(=O)c2ncccc2C3=O)CC1 | 16 (≈ 31.3 µM) | 4 (≈ 7.82 µM) | 8 (≈ 15.6 µM) | > 16 | 16 (≈ 31.3 µM) | 16 (≈ 31.3 µM) | > 16 | 4 (≈ 7.82 µM) |
| O=C1c2cccnc2C(=O)c2c1c(C(=O)OCCCCCCN1CCCC1)c1ccc(Br)cn21 | 4 (≈ 7.63 µM) | ≤ 0.0078 | 0.5 (≈ 0.953 µM) | 1 (≈ 1.91 µM) | 2 (≈ 3.81 µM) | 1 (≈ 1.91 µM) | 0.5 (≈ 0.953 µM) | 0.5 (≈ 0.953 µM) |
| O=C1c2cccnc2C(=O)c2c1c(C(=O)OCCCN1CCOCC1)c1ccc(Br)cn21 | 16 (≈ 32.1 µM) | 0.25 (≈ 0.502 µM) | 0.5 (≈ 1 µM) | 16 (≈ 32.1 µM) | 4 (≈ 8.03 µM) | 16 (≈ 32.1 µM) | 2 (≈ 4.01 µM) | 0.5 (≈ 1 µM) |
| CN1CCN(CCOC(=O)c2c3c(n4cc(Br)ccc24)C(=O)c2ncccc2C3=O)CC1 | 8 (≈ 16.1 µM) | 1 (≈ 2.01 µM) | 2 (≈ 4.02 µM) | 1 (≈ 2.01 µM) | 8 (≈ 16.1 µM) | 16 (≈ 32.2 µM) | 8 (≈ 16.1 µM) | 2 (≈ 4.02 µM) |
| CN(C)CCCOC(=O)c1c2c(n3cc(Br)ccc13)C(=O)c1ncccc1C2=O | 16 (≈ 35.1 µM) | 0.25 (≈ 0.548 µM) | 1 (≈ 2.19 µM) | 1 (≈ 2.19 µM) | 2 (≈ 4.38 µM) | 8 (≈ 17.5 µM) | 2 (≈ 4.38 µM) | 1 (≈ 2.19 µM) |
| O=C1c2cccnc2C(=O)c2c1c(C(=O)OCCCCCN1CCCC1)c1ccc(Br)cn21 | 8 (≈ 15.7 µM) | ≤ 0.0078 | 0.5 (≈ 0.98 µM) | 2 (≈ 3.92 µM) | 0.25 (≈ 0.49 µM) | 1 (≈ 1.96 µM) | 0.5 (≈ 0.98 µM) | 0.5 (≈ 0.98 µM) |
| O=C1c2cccnc2C(=O)c2c1c(C(=O)OCCCCN1CCCCC1)c1ccc(Br)cn21 | 16 (≈ 31.3 µM) | 0.125 (≈ 0.245 µM) | 1 (≈ 1.96 µM) | 4 (≈ 7.84 µM) | 2 (≈ 3.92 µM) | 4 (≈ 7.84 µM) | 1 (≈ 1.96 µM) | 1 (≈ 1.96 µM) |
| O=C1c2cccnc2C(=O)c2c1c(C(=O)OCCCO)c1ccc(Br)cn21 | 8 (≈ 18.6 µM) | 0.125 (≈ 0.291 µM) | 0.125 (≈ 0.291 µM) | 8 (≈ 18.6 µM) | 0.25 (≈ 0.582 µM) | 8 (≈ 18.6 µM) | 0.25 (≈ 0.582 µM) | 0.25 (≈ 0.582 µM) |
